Laboratory results from US20220169654A1, “New Organic Compounds” (Servier Pharmaceuticals LLC, priority 2020, published 2022).

What was measured:
MAT2A homodimer = biological target: T1, MAT2A homodimer (Homo sapiens, UniProt P31153); test: MAT2A inhibition (biochemical, liberated phosphate, PiColorLock Gold); conditions: recombinant MAT2A homodimer; IC50 bin with Max Inh.; read-out: Enzyme Inhibition Bin
T1 construct: inferred from Ni sepharose purification with imidazole elution; made in house; host or cells: Sf9 insect cells, baculovirus (Bac to Bac, pFASTBAC1)
T1 sequence (P31153 whole entry): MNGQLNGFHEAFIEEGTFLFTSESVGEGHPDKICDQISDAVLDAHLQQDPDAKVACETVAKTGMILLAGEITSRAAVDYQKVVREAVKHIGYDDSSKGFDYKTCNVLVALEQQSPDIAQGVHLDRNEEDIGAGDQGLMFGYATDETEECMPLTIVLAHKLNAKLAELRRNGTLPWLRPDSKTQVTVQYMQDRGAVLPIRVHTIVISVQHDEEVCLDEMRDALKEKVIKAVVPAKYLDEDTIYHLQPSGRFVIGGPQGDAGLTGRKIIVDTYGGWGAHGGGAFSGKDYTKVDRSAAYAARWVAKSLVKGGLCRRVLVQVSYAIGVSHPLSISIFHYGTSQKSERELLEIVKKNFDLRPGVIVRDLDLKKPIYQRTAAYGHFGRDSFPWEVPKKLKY
Procedure, shortened: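 Baculovirus/Sf9-expressed, Ni-purified MAT2A (4 μg/mL) preincubated with compound 60 min at 25 °C in Tris pH 8.0/KCl/MgCl2 buffer. Reaction started with 500 μM ATP and 400 μM L-methionine (substrate-mix concentrations), run 60 min at 25 °C. Phosphate measured colorimetrically against a phosphate standard curve to give IC50.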

[1] = tested on: SAM in HCT116 human colon carcinoma cell line with MTAP gene deleted (MTAP −/−); test: Cellular assay of target engagement (SAM), LC-MS/MS, 72 hrs; type: cell-based; conditions: HCT-116, IC50 bin with Max Inh., read-out: Cell 72 h SAM Inhibition (MTAP −/−)
Procedure, shortened: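 MTAP-deleted HCT116 cells plated 24 h, then given 10-point 3-fold dilutions for 72 hrs at 37° C. Intracellular SAM extracted in cold 80% methanol with 1M acetic acid and d3-SAM standard, quantified by LC-MS/MS (MRM m/z 399.2→250.1); IC50 derived.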

HCT116 MTAP−/− = test: Inhibition of cellular proliferation, 4 days, Cell Titer Glo, HCT116 MTAP−/−; type: cell-based; conditions: Homo sapiens, HCT-116, 96 h, IC50 bin with Max Inh., read-out: 4 Day Relative Growth Inhibition (MTAP −/−)
Procedure, shortened: (§1)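 Isogenic HCT116 pair differing only in MTAP status, plated 24 h before treatment with 10-point 3-fold dilutions; 4 days at 37° C./5% CO2. Cell Titer Glo luminescence, blank-subtracted and normalised to 0.2% DMSO control, gives percentage proliferation vs log molar concentration for IC50.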

HCT116 MTAP+/+ = test: Inhibition of cellular proliferation, 4 days, Cell Titer Glo, HCT116 MTAP+/+; type: cell-based; conditions: Homo sapiens, HCT-116, 96 h, IC50 bin with Max Inh., read-out: 4 Day Relative Growth Inhibition (MTAP +/+)
Procedure, shortened: as §1

| Compound | IC50 (MAT2A homodimer) [nM] | IC50 [1] [nM] | IC50 (HCT116 MTAP−/−) [nM] | IC50 (HCT116 MTAP+/+) [nM] |
| --- | --- | --- | --- | --- |
| CC(C)c1ccc(-c2c(=O)n(-c3ccc4nn(C)cc4c3)nc3c(C#N)cn(CC4CC4)c23)cn1 [Example 128, 5-(cyclopropylmethyl)-4-(6-isopropylpyridin-3-yl)-2-(2-methyl-2H-indazol-5-yl)-3-oxo-3,5-dihydro-2H-pyrrolo[3,2-c]pyridazine-7-carbonitrile] | < 100 | < 100 | 100 to 1000 | > 1000 |
| Cn1cc2cc(-n3nc4c(C#N)cn(CC5CC5)c4c(-c4ccc(Cl)cc4)c3=O)ccc2n1 [Example 139, 4-(4-chlorophenyl)-5-(cyclopropylmethyl)-2-(2-methyl-2H-indazol-5-yl)-3-oxo-3,5-dihydro-2H-pyrrolo[3,2-c]pyridazine-7-carbonitrile] | < 100 | < 100 | < 100 | < 100 |
| COc1ccc(-c2c(=O)n(-c3ccc4nn(C)cc4c3)nc3ncn(CC4CC4)c23)cc1 [Example 193, 5-(cyclopropylmethyl)-4-(4-methoxyphenyl)-2-(2-methyl-2H-indazol-5-yl)-2,5-dihydro-3H-imidazo[4,5-c]pyridazin-3-one] | < 100 | < 100 | < 100 | > 1000 |
| CC(C)c1cn(CC2CC2)c2c(-c3ccc(C4CC4)nc3)c(=O)n(-c3ccc4nn(C)cc4c3)nc12 [Example 248, 5-(cyclopropylmethyl)-4-(6-cyclopropylpyridin-3-yl)-7-isopropyl-2-(2-methyl-2H-indazol-5-yl)-2,5-dihydro-3H-pyrrolo[3,2-c]pyridazin-3-one] | < 100 | < 100 | < 100 | > 1000 |
| Cc1ccc(-c2c(=O)n(-c3ccc4nn(C)cc4c3)nc3c(F)cn(CC4CC4)c23)cn1 [Example 237, 5-(cyclopropylmethyl)-7-fluoro-2-(2-methyl-2H-indazol-5-yl)-4-(6-methylpyridin-3-yl)-2,5-dihydro-3H-pyrrolo[3,2-c]pyridazin-3-one] | < 100 | < 100 | < 100 | 100 to 1000 |
| Nc1ccc(-n2nc3ccn(CC4CC4)c3c(-c3ccc(OC(F)F)cc3)c2=O)cc1 [Example 228, 2-(4-aminophenyl)-5-(cyclopropylmethyl)-4-(4-(difluoromethoxy)phenyl)-2,5-dihydro-3H-pyrrolo[3,2-c]pyridazin-3-one] | < 100 | 100 to 1000 | > 1000 | > 1000 |
| Cn1cc2cc(-n3nc4nnn(CC5CC5)c4c(-c4ccc(C5CC5)cc4)c3=O)ccc2n1 [Example 209, 1-(cyclopropylmethyl)-7-(4-cyclopropylphenyl)-5-(2-methyl-2H-indazol-5-yl)-1,5-dihydro-6H-[1,2,3]triazolo[4,5-c]pyridazin-6-one] | < 100 | 100 to 1000 | 100 to 1000 | > 1000 |
| Cn1cc2cc(-n3nc4c(C#N)cn(CC5CC5)c4c(-c4ccc(OC(F)F)nc4)c3=O)ccc2n1 [Example 114, 5-(cyclopropylmethyl)-4-(6-(difluoromethoxy)pyridin-3-yl)-2-(2-methyl-2H-indazol-5-yl)-3-oxo-3,5-dihydro-2H-pyrrolo[3,2-c]pyridazine-7-carbonitrile] | < 100 | < 100 | < 100 | > 1000 |
| Cn1cc2cc(-n3nc4c(C(N)=O)cn(CC5CC5)c4c(-c4ccc(C5CC5)nc4)c3=O)ccc2n1 [Example 165, 5-(cyclopropylmethyl)-4-(6-cyclopropylpyridin-3-yl)-2-(2-methyl-2H-indazol-5-yl)-3-oxo-3,5-dihydro-2H-pyrrolo[3,2-c]pyridazine-7-carboxamide] | < 100 | < 100 | < 100 | 100 to 1000 |
| CNC(=O)c1ccc(-c2c(=O)n(-c3ccc4nn(C)cc4c3)nc3ccn(CC4CC4)c23)cn1 [Example 144, 5-(5-(cyclopropylmethyl)-2-(2-methyl-2H-indazol-5-yl)-3-oxo-3,5-dihydro-2H-pyrrolo[3,2-c]pyridazin-4-yl)-N-methylpicolinamide] | 100 to 1000 | 100 to 1000 | > 1000 | > 1000 |
| CN(C)S(=O)(=O)c1cn(CC2CC2)c2c(-c3ccc(C4CC4)nc3)c(=O)n(-c3ccc4nn(C)cc4c3)nc12 [Example 178, 5-(cyclopropylmethyl)-4-(6-cyclopropylpyridin-3-yl)-N,N-dimethyl-2-(2-methyl-2H-indazol-5-yl)-3-oxo-3,5-dihydro-2H-pyrrolo[3,2-c]pyridazine-7-sulfonamide] | 100 to 1000 | > 1000 | > 1000 | > 1000 |
| Cn1cc2cc(-n3nc4ncn(CC5CC5)c4c(-c4ccc(C5CC5)nc4)c3=O)ccc2n1 [Example 190, 5-(cyclopropylmethyl)-4-(6-cyclopropylpyridin-3-yl)-2-(2-methyl-2H-indazol-5-yl)-2,5-dihydro-3H-imidazo[4,5-c]pyridazin-3-one] | < 100 | < 100 | < 100 | > 1000 |
| Cn1cc2cc(-n3nc4[nH]c(=O)n(CC5CC5)c4c(-c4ccc(OC(F)F)cc4)c3=O)ccc2n1 [Example 197, 5-(cyclopropylmethyl)-4-(4-(difluoromethoxy)phenyl)-2-(2-methyl-2H-indazol-5-yl)-2,7-dihydro-3H-imidazo[4,5-c]pyridazine-3,6(5H)-dione] | < 100 | < 100 | 100 to 1000 | 100 to 1000 |
| Cc1nn(CC2CC2)c2c(-c3ccc(Cl)cc3)c(=O)n(-c3ccc4nn(C)cc4c3)nc12 [Example 215, 7-(4-chlorophenyl)-1-(cyclopropylmethyl)-3-methyl-5-(2-methyl-2H-indazol-5-yl)-1,5-dihydro-6H-pyrazolo[4,3-c]pyridazin-6-one] | < 100 | < 100 | < 100 | 100 to 1000 |
| Cn1cc(-n2nc3ccn(CC4CC4)c3c(-c3ccc(OC(F)F)cc3)c2=O)ccc1=O [Example 223, 5-(cyclopropylmethyl)-4-(4-(difluoromethoxy)phenyl)-2-(1-methyl-6-oxo-1,6-dihydropyridin-3-yl)-2,5-dihydro-3H-pyrrolo[3,2-c]pyridazin-3-one] | < 100 | < 100 | 100 to 1000 | 100 to 1000 |
| Cn1cc2cc(-n3nc4cnn(CC5CC5)c4c(-c4ccc(Cl)cc4)c3=O)ccc2n1 [Example 221, 7-(4-chlorophenyl)-1-(cyclopropylmethyl)-5-(2-methyl-2H-indazol-5-yl)-1,5-dihydro-6H-pyrazolo[4,3-c]pyridazin-6-one] | < 100 | < 100 | < 100 | 100 to 1000 |
| Cc1ccc(-c2c(=O)n(-c3ccc4nc(C)n(C)c4c3)nc3ccn(CC4CC4)c23)cn1 [Example 141, 5-(cyclopropylmethyl)-2-(1,2-dimethyl-1H-benzo[d]imidazol-6-yl)-4-(6-methylpyridin-3-yl)-2,5-dihydro-3H-pyrrolo[3,2-c]pyridazin-3-one] | < 100 | < 100 | < 100 | 100 to 1000 |
